The source of these data is US6489338B2, “Imidazopyridine and imidazopyrimidine antiviral agents” (Bristol-Myers Squibb Company, priority 2000, dated 2002).

SMILES strings stand for the structures.

The subject of this experiment is respiratory syncytial virus Long strain. The experiment can be described thus: Antiviral activity against respiratory syncytial virus, MTT cell protection assay in HEp-2 cells. The experiment is classed as cell-based. As to conditions: HEp-2 cells infected with RSV Long strain, MTT staining. The procedure: The antiviral activity of these compounds against respiratory syncytial virus was determined in HEp-2 (ATCC CCL 23) cells that were seeded in 96 well microtiter plates at 1.5×10^4 cells/100 μL/well in DMEM (Dulbecco's Modified Eagle's Medium) supplemented with penicillin, streptomycin, glutamine, and 10% fetal bovine serum. The cells were incubated overnight at 37° C., the culture medium was removed, and cells were infected (100 μL volume in medium containing 2% fetal bovine serum) with respiratory syncytial virus Long strain at 5000 plaque forming units/mL. The compounds, 100 μL at appropriate dilution, were added to the cells 1 hour post infection. After incubation for 4 days at 37° C., the plates were stained with MTT solution (3-[4,5-dimethlythiazol-2-yl]-2,5-diphenyltetrazolium bromide) and incubated for 4 hours at 37° C. The media was aspirated from the cells and 100 μL/well of acidified isopropanol (per liter: 900 mL isopropanol, 100 mL Triton X100, and 4 mL conc. HCl) was added. Plates were incubated for 15 minutes at room temperature with shaking, and an optical density (OD 540) reading at 540 nanometer (nm) was obtained. The optical density reading is proportional to the number of viable cells. The increase in the number of viable cells reflects the protective, antiviral activity of the compound. […]
Background: Formazan colour is commonly taken as a measure of viable cells.

In turn, `NC(=O)c1ncn([C@@H]2O[C@H](CO)[C@@H](O)[C@H]2O)n1` [Ribavirin] had a cell protection (at 2.5 μg/mL (corresponding to 10.2 μM)) of 100%. Moreover, the EC50 (human respiratory syncytial virus, compound added 1 hour post infection, 4 days at 37° C., read-out: EC50 (concentration that produces 50% cell protection)) was determined as 3 µM.
